Experimental data published in ChEMBL document CHEMBL1152750, “Design, synthesis and structure-activity relationships of 1,3,4-oxadiazole derivatives as novel inhibitors of glycogen synthase kinase-3beta” (Bioorg Med Chem, 2009).
Blank lines part the entries; values can stand above or below the compound they belong to.

How the values were obtained:
[1] = biological target: Glycogen synthase kinase-3 beta (Homo sapiens, UniProt P49841); assay: Inhibition of human GSK3-beta
[2] = biological target: Tyrosine-protein kinase Lck (Homo sapiens, UniProt P06239); assay: Inhibition of Lck
[3] = biological target: Protein kinase C theta type (Homo sapiens, UniProt Q04759); assay: Inhibition of PKCtheta
[4] = biological target: Cyclin-dependent kinase 2 (Homo sapiens, UniProt P24941); assay: Inhibition of CDK2
[5] = Inhibition of VEGFR
[6] = biological target: Cyclin-dependent kinase 1 (Homo sapiens, UniProt P06493); assay: Inhibition of CDK1
[7] = Oral bioavailability in rat at 1 mg/kg; format: ADME, organism-based; details: in vivo
[8] = biological target: Fibroblast growth factor receptor 3 (Homo sapiens, UniProt P22607); assay: Inhibition of FGFR3
Angiopoietin-1 receptor = Angiopoietin-1 receptor (Homo sapiens, UniProt Q02763); assay: Inhibition of Tie2
[9] = biological target: Mast/stem cell growth factor receptor Kit (Homo sapiens, UniProt P10721); assay: Inhibition of cKit
[10] = biological target: Mitogen-activated protein kinase 14 (Homo sapiens, UniProt Q16539); assay: Inhibition of p38alpha
[11] = AUC in rat at 1 mg/kg, po; format: ADME, organism-based; design: dose 1 mg/kg, route oral; details: plasma
[12] = biological target: Casein kinase I isoform delta (Homo sapiens, UniProt P48730); assay: Inhibition of CK1delta expressed in Escherichia coli
[13] = biological target: Hepatocyte growth factor receptor (Homo sapiens, UniProt P08581); assay: Inhibition of cMet
Rattus norvegicus = assay: Volume of distribution at steady state in rat […]; format: ADME, organism-based; details: in vivo
[14] = biological target: Proto-oncogene tyrosine-protein kinase Src (Homo sapiens, UniProt P12931); assay: Inhibition of SRC
Aurora kinase B = Aurora kinase B (Homo sapiens, UniProt Q96GD4); assay: Inhibition of Aurora B
[15] = biological target: Receptor tyrosine-protein kinase erbB-2 (Homo sapiens, UniProt P04626); assay: Inhibition of HER2
[16] = biological target: Mitogen-activated protein kinase kinase kinase 1 (Homo sapiens, UniProt Q13233); assay: Inhibition of MEKK1
[17] = biological target: Mitogen-activated protein kinase 8 (Homo sapiens, UniProt P45983); assay: Inhibition of JNK1
[18] = biological target: Dual specificity mitogen-activated protein kinase kinase 1 (Homo sapiens, UniProt Q02750); assay: Inhibition of MEK1
[19] = Inhibition of PKA expressed in Escherichia coli
[20] = biological target: Inhibitor of nuclear factor kappa-B kinase subunit beta (Homo sapiens, UniProt O14920); assay: Inhibition of IKK-beta
[21] = biological target: Mitogen-activated protein kinase 3 (Homo sapiens, UniProt P27361); assay: Inhibition of ERK1
[22] = biological target: Serine/threonine-protein kinase B-raf (Homo sapiens, UniProt P15056); assay: Inhibition of BRAF
[23] = Total clearance in rat at 0.1 mg/kg, iv; format: ADME, organism-based; design: dose 0.1 mg/kg, route intravenous; details: in vivo
[24] = biological target: Cyclin-dependent kinase 5 (Homo sapiens, UniProt Q00535); assay: Inhibition of CDK5
Chain of Cyclin-dependent kinase 5 (Q00535 whole entry): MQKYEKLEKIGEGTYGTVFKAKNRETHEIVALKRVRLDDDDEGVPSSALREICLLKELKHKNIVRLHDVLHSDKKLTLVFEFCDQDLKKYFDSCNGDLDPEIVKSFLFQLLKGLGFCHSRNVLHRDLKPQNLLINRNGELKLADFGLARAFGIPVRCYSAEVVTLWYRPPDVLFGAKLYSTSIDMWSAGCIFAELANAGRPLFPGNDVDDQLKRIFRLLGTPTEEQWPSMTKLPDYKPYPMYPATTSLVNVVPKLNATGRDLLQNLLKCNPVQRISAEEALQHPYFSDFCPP

Chain of Glycogen synthase kinase-3 beta (P49841 whole entry): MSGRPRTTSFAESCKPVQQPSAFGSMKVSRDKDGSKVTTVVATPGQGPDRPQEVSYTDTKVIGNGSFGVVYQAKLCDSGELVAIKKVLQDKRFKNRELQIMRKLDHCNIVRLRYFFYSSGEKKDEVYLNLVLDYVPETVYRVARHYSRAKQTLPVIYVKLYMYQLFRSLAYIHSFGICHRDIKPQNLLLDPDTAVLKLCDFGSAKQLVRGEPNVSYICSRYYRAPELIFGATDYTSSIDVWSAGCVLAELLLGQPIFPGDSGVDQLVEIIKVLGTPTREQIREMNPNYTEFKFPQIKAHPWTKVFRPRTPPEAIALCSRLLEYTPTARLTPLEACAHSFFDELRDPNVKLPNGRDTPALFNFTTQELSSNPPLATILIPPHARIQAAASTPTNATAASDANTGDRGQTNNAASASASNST
Chain of Mitogen-activated protein kinase 8 (P45983 whole entry): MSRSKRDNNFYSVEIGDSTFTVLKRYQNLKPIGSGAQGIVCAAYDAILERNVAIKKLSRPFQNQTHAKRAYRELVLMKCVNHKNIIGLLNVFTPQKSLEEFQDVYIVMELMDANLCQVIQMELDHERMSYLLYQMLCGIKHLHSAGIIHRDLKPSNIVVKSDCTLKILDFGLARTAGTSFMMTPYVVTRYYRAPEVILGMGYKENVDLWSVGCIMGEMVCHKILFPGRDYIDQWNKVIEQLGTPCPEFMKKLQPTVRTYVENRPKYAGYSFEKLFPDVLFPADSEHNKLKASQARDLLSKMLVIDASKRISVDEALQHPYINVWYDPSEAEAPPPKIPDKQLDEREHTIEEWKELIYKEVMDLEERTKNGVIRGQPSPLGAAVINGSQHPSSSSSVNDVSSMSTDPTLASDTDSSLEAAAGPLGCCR
Chain of Mast/stem cell growth factor receptor Kit (P10721 whole entry): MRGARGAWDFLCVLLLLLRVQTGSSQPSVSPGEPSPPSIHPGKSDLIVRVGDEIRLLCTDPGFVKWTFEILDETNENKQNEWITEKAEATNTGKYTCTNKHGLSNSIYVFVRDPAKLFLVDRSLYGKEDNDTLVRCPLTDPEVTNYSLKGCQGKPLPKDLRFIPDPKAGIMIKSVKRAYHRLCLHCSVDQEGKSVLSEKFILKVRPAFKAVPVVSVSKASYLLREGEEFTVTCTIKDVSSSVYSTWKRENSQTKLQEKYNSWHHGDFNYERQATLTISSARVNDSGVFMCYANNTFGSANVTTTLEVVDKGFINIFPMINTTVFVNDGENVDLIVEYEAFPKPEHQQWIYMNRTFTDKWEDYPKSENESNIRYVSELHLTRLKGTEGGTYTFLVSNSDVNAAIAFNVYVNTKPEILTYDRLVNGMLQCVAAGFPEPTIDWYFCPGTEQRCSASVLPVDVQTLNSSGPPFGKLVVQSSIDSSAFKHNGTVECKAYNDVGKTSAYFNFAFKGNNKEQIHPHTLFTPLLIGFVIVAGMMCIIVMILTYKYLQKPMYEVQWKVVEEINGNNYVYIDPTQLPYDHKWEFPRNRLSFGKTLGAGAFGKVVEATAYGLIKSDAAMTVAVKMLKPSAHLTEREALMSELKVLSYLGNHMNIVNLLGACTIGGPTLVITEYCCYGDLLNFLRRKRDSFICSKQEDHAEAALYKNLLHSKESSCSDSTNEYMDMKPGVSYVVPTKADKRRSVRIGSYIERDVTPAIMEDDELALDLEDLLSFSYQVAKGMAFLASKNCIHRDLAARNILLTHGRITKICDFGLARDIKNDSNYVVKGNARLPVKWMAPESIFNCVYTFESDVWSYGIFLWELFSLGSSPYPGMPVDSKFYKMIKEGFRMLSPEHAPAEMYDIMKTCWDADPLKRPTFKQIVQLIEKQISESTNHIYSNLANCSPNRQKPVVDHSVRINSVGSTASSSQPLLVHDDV
Chain of Protein kinase C theta type (Q04759 whole entry): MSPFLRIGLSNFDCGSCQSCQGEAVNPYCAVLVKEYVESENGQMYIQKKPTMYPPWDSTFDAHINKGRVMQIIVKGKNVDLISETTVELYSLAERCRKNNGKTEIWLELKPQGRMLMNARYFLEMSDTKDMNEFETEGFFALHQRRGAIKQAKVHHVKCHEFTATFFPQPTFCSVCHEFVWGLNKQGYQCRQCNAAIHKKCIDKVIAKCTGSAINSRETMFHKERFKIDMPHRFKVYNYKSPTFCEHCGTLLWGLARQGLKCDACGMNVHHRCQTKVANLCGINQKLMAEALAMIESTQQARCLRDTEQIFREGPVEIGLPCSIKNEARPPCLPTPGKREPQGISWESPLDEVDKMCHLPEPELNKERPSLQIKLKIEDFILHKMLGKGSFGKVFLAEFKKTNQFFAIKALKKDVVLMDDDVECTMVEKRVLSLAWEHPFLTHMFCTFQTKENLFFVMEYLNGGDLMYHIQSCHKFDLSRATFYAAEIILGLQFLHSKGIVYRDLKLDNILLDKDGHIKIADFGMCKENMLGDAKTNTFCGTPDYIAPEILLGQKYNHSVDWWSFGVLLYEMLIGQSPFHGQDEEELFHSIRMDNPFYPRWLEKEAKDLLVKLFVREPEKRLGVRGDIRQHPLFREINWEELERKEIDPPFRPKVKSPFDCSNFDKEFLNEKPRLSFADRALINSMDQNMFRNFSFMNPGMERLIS
Chain of Hepatocyte growth factor receptor (P08581 whole entry): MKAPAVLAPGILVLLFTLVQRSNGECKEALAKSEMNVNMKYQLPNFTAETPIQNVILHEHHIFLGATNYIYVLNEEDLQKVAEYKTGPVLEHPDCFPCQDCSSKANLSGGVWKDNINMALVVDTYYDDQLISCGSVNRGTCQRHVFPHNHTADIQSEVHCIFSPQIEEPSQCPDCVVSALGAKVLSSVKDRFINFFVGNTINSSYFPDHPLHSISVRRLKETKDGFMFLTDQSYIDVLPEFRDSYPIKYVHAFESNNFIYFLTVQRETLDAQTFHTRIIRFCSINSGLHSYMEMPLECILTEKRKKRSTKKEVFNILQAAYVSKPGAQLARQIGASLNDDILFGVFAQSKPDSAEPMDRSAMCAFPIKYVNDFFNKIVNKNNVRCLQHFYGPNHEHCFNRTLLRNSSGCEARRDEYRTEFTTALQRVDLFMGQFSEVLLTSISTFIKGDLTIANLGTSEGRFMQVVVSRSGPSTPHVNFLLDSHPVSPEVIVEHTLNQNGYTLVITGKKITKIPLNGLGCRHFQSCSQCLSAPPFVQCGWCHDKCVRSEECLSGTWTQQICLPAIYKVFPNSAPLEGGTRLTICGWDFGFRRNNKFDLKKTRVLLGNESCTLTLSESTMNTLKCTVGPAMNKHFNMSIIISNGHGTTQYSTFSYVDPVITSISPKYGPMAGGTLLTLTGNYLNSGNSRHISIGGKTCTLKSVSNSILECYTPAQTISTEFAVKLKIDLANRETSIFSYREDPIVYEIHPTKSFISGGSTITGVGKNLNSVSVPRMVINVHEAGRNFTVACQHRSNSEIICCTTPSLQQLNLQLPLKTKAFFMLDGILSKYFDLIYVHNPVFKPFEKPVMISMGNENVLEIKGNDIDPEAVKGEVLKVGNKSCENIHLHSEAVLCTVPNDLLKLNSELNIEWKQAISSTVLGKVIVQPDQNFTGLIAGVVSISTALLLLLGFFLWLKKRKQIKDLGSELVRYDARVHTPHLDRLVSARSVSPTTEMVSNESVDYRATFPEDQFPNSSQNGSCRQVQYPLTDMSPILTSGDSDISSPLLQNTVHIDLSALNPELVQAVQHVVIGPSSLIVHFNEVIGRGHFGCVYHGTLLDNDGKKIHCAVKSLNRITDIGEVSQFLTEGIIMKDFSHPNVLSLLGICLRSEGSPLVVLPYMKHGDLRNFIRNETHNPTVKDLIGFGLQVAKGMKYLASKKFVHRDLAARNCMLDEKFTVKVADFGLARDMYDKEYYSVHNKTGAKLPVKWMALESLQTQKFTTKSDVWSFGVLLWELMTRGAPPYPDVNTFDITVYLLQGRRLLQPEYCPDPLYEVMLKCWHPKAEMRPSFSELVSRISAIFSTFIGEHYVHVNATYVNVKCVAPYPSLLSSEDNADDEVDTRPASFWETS
Chain of Mitogen-activated protein kinase 14 (Q16539 whole entry): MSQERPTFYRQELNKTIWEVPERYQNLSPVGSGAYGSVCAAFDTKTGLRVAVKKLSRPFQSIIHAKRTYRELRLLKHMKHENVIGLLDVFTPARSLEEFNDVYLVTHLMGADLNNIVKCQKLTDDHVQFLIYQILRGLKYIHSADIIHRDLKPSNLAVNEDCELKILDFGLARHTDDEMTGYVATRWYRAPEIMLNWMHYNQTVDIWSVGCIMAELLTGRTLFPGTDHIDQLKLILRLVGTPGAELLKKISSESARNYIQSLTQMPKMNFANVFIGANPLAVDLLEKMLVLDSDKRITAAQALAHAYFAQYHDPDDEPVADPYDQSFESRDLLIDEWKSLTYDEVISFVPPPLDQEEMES
Chain of Aurora kinase B (Q96GD4 whole entry): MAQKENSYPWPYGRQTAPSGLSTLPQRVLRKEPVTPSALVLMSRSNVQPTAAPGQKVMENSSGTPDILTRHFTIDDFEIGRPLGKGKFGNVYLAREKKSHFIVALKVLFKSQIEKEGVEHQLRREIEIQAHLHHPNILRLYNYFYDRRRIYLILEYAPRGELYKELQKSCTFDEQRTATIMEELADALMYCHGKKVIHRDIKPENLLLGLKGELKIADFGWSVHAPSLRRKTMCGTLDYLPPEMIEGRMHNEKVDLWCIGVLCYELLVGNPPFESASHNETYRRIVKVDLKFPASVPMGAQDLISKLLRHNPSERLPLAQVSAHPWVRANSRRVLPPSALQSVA

SMILES: Fc1cccc(CNc2nnc(-c3ccc4c(c3)CCO4)o2)c1
IC50 [1]: 0.33 µM

SMILES: Fc1cccc(COc2nnc(-c3ccc4c(c3)CCO4)o2)c1
IC50 [1]: > 10 µM

SMILES: c1ccc(CSc2nnc(-c3ccc4c(c3)CCO4)o2)cc1
IC50 [1]: 0.21 µM

SMILES: O=[N+]([O-])c1ccc(NCCNc2ncc(-c3ncc[nH]3)c(-c3ccc(Cl)cc3Cl)n2)nc1
IC50 [1]: 0.01 µM

SMILES: COc1ccc(CSc2nnc(-c3ccc4[nH]ncc4c3)o2)cc1C(F)(F)F
IC50 [1]: 0.016 µM

SMILES: COc1ccc(CSc2nnc(-c3ccc4c(c3)CCO4)o2)cc1Cl
IC50 [1]: 0.013 µM

SMILES: Fc1cccc(CSc2nnc(-c3ccc4c(c3)CCO4)o2)c1
IC50 [1]: 0.054 µM

SMILES: Fc1cccc(CCc2nnc(-c3ccc4c(c3)CCO4)o2)c1
IC50 [1]: 0.34 µM

SMILES: Clc1cccc(CSc2nnc(-c3ccc4c(c3)CCO4)o2)c1
IC50 [1]: 0.094 µM

SMILES: Clc1ccc(CSc2nnc(-c3ccc4c(c3)CCO4)o2)cc1
IC50 [1]: 0.28 µM

SMILES: COc1ccc(CSc2nnc(-c3ccc4occc4c3)o2)cc1C(F)(F)F
IC50 [1]: 0.0049 µM

SMILES: FC(F)(F)c1cccc(CSc2nnc(-c3ccc4c(c3)CCO4)o2)c1
IC50 [1]: 0.068 µM

SMILES: COc1ccc(CSc2nnc(-c3ccc4c(c3)CCO4)o2)cc1C(F)(F)F
IC50 [1]: 0.0057 µM

SMILES: Clc1ccccc1CSc1nnc(-c2ccc3c(c2)CCO3)o1
IC50 [1]: 0.2 µM

SMILES: Fc1cccc(SCc2nnc(-c3ccc4c(c3)CCO4)o2)c1
IC50 [1]: 0.68 µM

SMILES: COc1ccc(CSc2nnc(-c3ccc4c(c3)CCO4)o2)cc1F
IC50 [1]: 0.044 µM

The remaining lines, values ahead:

IC50 [1]: 0.0094 µM
SMILES: Cn1cnc2ccc(-c3nnc(SCc4cccc(C(F)(F)F)c4)o3)cc21

IC50 [1]: 0.018 µM
SMILES: COc1ccc(CSc2nnc(-c3ccc4ncccc4c3)o2)cc1C(F)(F)F

IC50 [1]: 0.025 µM
SMILES: COc1ccc(-c2coc3ccc(-c4nnc(SCc5ccc(OC)c(C(F)(F)F)c5)o4)cc23)cc1

IC50 [1]: 0.091 µM
SMILES: N#Cc1cccc(CSc2nnc(-c3ccc4c(c3)CCO4)o2)c1

IC50 [1]: 0.028 µM
SMILES: COc1ccc(CSc2nnc(-c3ccc4c(c3)CCO4)o2)cc1C#N

IC50 [1]: 0.22 µM
SMILES: COc1ccc(CSc2nnc(-c3ccc4c(c3)CCO4)o2)cc1

IC50 [1]: 0.63 µM
SMILES: COC(=O)c1cccc(CSc2nnc(-c3ccc4c(c3)CCO4)o2)c1

IC50 [1]: 0.0084 µM
SMILES: COc1ccc(-c2coc3ccc(-c4nnc(SCc5cccc(C(F)(F)F)c5)o4)cc23)cc1

IC50 [1]: 0.0035 µM
SMILES: COc1ccc(-c2coc3ccc(-c4nnc(SCc5cccc(C#N)c5)o4)cc23)cc1

IC50 [1]: 0.0086 µM
SMILES: COc1ccc(-n2cnc3ccc(-c4nnc(SCc5ccc(OC)c(C(F)(F)F)c5)o4)cc32)cc1

IC50 [1]: 0.0031 µM
SMILES: COc1ccc(CSc2nnc(-c3ccc4ncsc4c3)o2)cc1C(F)(F)F

IC50 [1]: 0.0025 µM
SMILES: COc1ccc(-n2cnc3ccc(-c4nnc(SCc5cccc(C(F)(F)F)c5)o4)cc32)cc1

IC50 [2]: > 10 µM
IC50 [3]: 3.5 µM
IC50 [4]: > 10 µM
IC50 [5]: > 10 µM
IC50 [6]: 4.6 µM
bioavailability [7]: 1.7%
IC50 [8]: > 10 µM
IC50 (Angiopoietin-1 receptor): > 10 µM
IC50 [9]: > 10 µM
IC50 [10]: > 10 µM
AUC [11]: 7.9 ng·h/mL
IC50 [12]: > 10 µM
IC50 [13]: > 10 µM
Vdss (Rattus norvegicus): 1.453 L/kg
IC50 [14]: > 10 µM
IC50 (Aurora kinase B): > 10 µM
IC50 [15]: > 10 µM
IC50 [16]: 8.1 µM
IC50 [17]: > 10 µM
IC50 [18]: > 10 µM
IC50 [19]: > 10 µM
IC50 [20]: > 10 µM
IC50 [21]: > 10 µM
IC50 [22]: > 10 µM
clearance [23]: 35.6 mL/min/kg
IC50 [24]: > 10 µM
IC50 [1]: 0.0023 µM
SMILES: COc1ccc(-n2cnc3ccc(-c4nnc(SCc5cccc(C#N)c5)o4)cc32)cc1
